Measurements reported in patent publication US9265755B2, “Stem cell administration to reduce TNF-α level in CSF of an autism spectrum disorder or pervasive development disorder patient” (priority 2009, dated 2016).
Entries after “also recorded” stand apart in the source; their conditions may differ.

Legend:
[1] = system: test subjects with autism spectrum condition; assay: L-Carnosine in test subjects with autism spectrum condition (language, CARS); assay type: in vivo, human
[2] = system: patient with co-morbid autism condition and inflammatory colitis; assay: Co-morbid autism condition in a single patient treated with infliximab; assay type: in vivo, human; conditions: in just days of treatment
Source text: This patient regressed and became autistic […] with the onset of their inflammatory colitis condition becoming clinically obvious at a later date.

[3] = system: patients with autistic regression and abnormal EEG; assay: Thalidomide in patients with autistic regression and abnormal EEG
[4] = system: patients diagnosed with an autism spectrum condition; assay: Clinical language, social skills, CARS and EEG outcome in the lenalinomide study; assay type: in vivo, human
Interleukin-1β = assay: Serum Interleukin-1β levels with lenalidomide outside of the study; assay type: in vivo, human; conditions: 2.5 to 10 mg; 2 subjects; 12 to 24 weeks of therapy
autism spectrum subjects = assay: Clinical improvement with lenalidomide outside of the study; assay type: in vivo, human; conditions: 2.5 to 10 mg; four subjects outside of the study
TNF-α = TNF-α levels in CSF and serum of autism spectrum patients treated with lenalinomide; assay type: in vivo, human
[5] = 25 to 50 mg per day for 2 to 4 months, six patients
[6] = after 4 to 12 weeks off the medication
[7] = 2.5 mg per day, in 6 to 12 weeks, four patients with TNF-α CSF elevation over serum levels

Compound: NCCC(=O)N[C@@H](Cc1cnc[nH]1)C(=O)O [L-Carnosine]
- language function, receptive one word vocabulary testing scores ([1]; 800 mg per day, after 6 and 12 weeks of treatment, compared to placebo): improvement
- CARS scores ([1]; 800 to 1000 mg, over 8 weeks): CARS scores improvement
- language ([1]; 800 to 1000 mg, over 8 weeks): language improvement

Compound: Infliximab
- co-morbid autism condition [2]: improvement

Compound: O=C1CCC(N2C(=O)c3ccccc3C2=O)C(=O)N1 (stereo not shown) [Thalidomide]
- EEG [3, 5]: improved
- clinical global improvement [3, 5]: clinical global improvement occurred
- clinical state of patients with autistic regression and abnormal EEG ([3]; patients who previously showed immune partial response to oral or injectable corticosteroids): improvement

Compound: Nc1cccc2c1CN(C1CCC(=O)NC1=O)C2=O (stereo not shown) [Lenalinomide]
- EEG in patients with abnormal EEG ([4]; 2.5 mg per day): showed improvement; also recorded: may have improved
- patients with elevated TNF-α levels in CSF and serum improved over baseline clinically ([4]; 2.5 mg per day (4/6 of completed study)): four out of four
- CGI rating scale for language expression ([4]; 2.5 mg per day, FIG. 2a): Improvement
- CGI rating scale for receptive language ([4]; 2.5 mg per day, FIG. 2b): Improvement
- CGI rating scale for social skills ([4]; 2.5 mg per day, FIG. 3): Improvement
- neuropsychological testing, receptive one-word test ([4]; 2.5 mg per day, FIG. 4a): Improvement
- neuropsychological testing, expressive one-word test ([4]; 2.5 mg per day, FIG. 4b): Improvement
- Childhood Autism Rating Scale Scores (CARS) ([4]; 2.5 mg per day, four patients): improved
- language skills ([4]; 2.5 mg per day, four patients): improved
- social skills ([4]; 2.5 mg per day, four patients): improved
- skills after withdrawal of the medication [4, 6]: regressed
- clinical state when medication was re-introduced ([4]; re-introduced at 2.5 to 5 mg per day, three patients): improved
- Interleukin-1β levels in serum (Interleukin-1β): lower
- clinical improvement (autism spectrum subjects): great clinical improvement
- levels of TNF-α in CSF (TNF-α; [7]): lowered levels
- levels of TNF-α in serum (TNF-α; [7]): lowered levels
- TNF-α levels in serum after withdrawal of the medication (TNF-α; [6]): increased
- CSF and serum ratios of TNF-α and other inflammatory cytokines (TNF-α; when TNF-α is elevated in an inflammatory response): lowering
